{"source": "paper PMC2797370", "about": "(2009)", "target": "T1, prostaglandin endoperoxide synthase-2 (PGHS-2) (Mus musculus, UniProt Q05769)", "T1 sequence (Q05769 18-604)": "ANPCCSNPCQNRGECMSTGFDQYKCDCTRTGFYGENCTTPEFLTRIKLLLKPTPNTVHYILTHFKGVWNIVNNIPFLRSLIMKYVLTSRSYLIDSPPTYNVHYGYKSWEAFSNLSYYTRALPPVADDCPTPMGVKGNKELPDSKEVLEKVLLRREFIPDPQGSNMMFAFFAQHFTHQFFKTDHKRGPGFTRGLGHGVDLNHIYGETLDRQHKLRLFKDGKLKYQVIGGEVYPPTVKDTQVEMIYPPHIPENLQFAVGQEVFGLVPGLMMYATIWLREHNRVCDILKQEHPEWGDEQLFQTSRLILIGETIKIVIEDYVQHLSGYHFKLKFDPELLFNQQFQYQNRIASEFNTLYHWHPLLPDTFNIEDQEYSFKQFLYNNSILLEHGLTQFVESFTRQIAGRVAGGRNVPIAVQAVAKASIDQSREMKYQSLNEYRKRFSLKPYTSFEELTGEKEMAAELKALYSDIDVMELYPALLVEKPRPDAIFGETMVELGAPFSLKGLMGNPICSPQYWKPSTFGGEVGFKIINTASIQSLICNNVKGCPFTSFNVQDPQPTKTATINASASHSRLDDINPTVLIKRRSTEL", "assay": "oxygen uptake assay of purified enzyme", "format": "biochemical", "data": [{"smiles": "CCCCC/C=C\\C/C=C\\C/C=C\\C/C=C\\CCCC(=O)Nc1cccc(O)c1", "note": "[3-HPAA, N-(3-Hydroxyphenyl)eicosa-5,8,11,14-tetraenamide]", "values": [{"measurement": "IC50", "value": 1600, "unit": "nM"}]}]}
